From patent US6774143B1, “Method for treating cells resistant to antineoplastic agents” (Novartis AG, priority 2003, dated 2004)
Converted amounts (≈) assume the structure as drawn.

Key:
1A9 cells [1] = test: In vitro cytotoxicity assay (MTT); type: cell-based; settings: Homo sapiens, 1A9, 72 h, 1A9 cells, 72 hours
Procedure: 1A9 and 1A9PTX22 cells are plated in 96-well plates at 5×10^4 cells/well, plced in a tissue culture incubator and allowed to attach overnight. The next morning, the number of viable cells in the “time 0” plate (3 wells for each cell line) is determined using an MTT assay (Alley M C, et al., Cancer Res. 1988, 48:589-601).
At the same time drugs are added in serial, 10-fold dilutions, to the experimental plates. Corresponding vehicles are added to control plates. Experimental and control plates are then incubated in the tissue culture incubator for 72 hours. After the incubation the number of viable cells is determined in each plate using the MTT assay. IC50s (defined as a concentration of a given compound causing 50% inhibition of cell growth) are determined by comparing cell growth in the drug-treated plate (T−T0) to the cell growth in the corresponding control plate (C−T0). For each experiment results are calculated using average numbers from two sets of plates.
Discodermolide is isolated from the sponge Discodermia dissoluta using the method of Gunasekera SP (supra). Multiple batches of compound of similar purity (all>95% pure, as determined by mass spectrometry, and nuclear magnetic resonance analysis) are used throughout the various studies. For the in vitro cytotoxicity assays all compounds are dissolved in DMSO and are added to the plates with cells to obtain desired concentrations. […] Paclitaxel is purchased from Sigma/Aldrich, (St. Louis, Mo.). For the in vivo hollow fiber assay, solid discodermolide is dissolved in pure ethanol to create a stock solution which is diluted just before dosing with Cremophor EL and D5W to a final concentration of 16.7% Cremophor EL, 8.3% ethanol and 75% D5W. The compound is administered to mice as a single, 15 mg/kg iv injection. Positive control animals receive clinical formulations of paclitaxel (TAXOL) diluted 4-fold with D5W (12.5% Cremophor El, 12.5% ethanol and 75% D5W final concentrations) and administered iv, at 15 mg/kg, once daily for five consecutive days. Vehicle controls are administered according to the corresponding drug schedules.

Raf-1 = test: Western blot, Raf-1 phosphorylation; type: cell-based, human
Procedure: Cells are plated at a density of 1.5×10^6 cells per 100 mm plate. The next day cells are treated with vehicle control (0.1% DMSO) or test compound for 24 h. Cells are harvested by washing monolayers twice with PBS, then lysing with 300 ul of lysis buffer[20 mM Tris (pH 8.0), […], 100 mM NaCl, 0.5% NP40, 0.0125% DOC, 2.5% glycerol, 1 mM vanadate, 25 mM sodium fluoride and protease inhibitor cocktail (1:500 dilution, Sigma)]. Lysates were spun at 12,000× g and the supernatant transferred to a new tube. Protein concentration of the lysates is determined using BCA protein assay Reagent (Pierce). Samples (75 μg) are resolved by SDS-PAGE on a 7.5% or 14% tris-glycine gel for Raf-1 and Bcl-xL, respectively, and transferred to nitrocellulose. Immunodetection is performed as described by Amersham Vistra Fluorescence Western blotting Kit directions with the following modifications: the membrane is blocked with 5% milk (Carnation Non-Fat Dry Milk) in buffer containing 20 mM Tris-HCl (pH=7.4), 100 mM NaCl, and 0.2% Tween 20 (TBST) overnight and is subsequently incubated for 2 h with primary antibody (Santa Cruz C-12 for Raf-1 and Santa Cruz H-62 for Bcl-xL), followed by fluorescein-linked anti-rabbit Ig in 5% milk and anti-fluorescein alkaline phosphatase conjugate in TBST at 1:500 and 1:2000 dilutions, respectively. A Storm 860 (Molecular Dynamics) is used to detect fluorescent product according to the manufacturer's instructions.

1A9 cells [2] = test: Antiproliferative assay (MTS); type: cell-based; settings: Homo sapiens, 1A9, 72 h, single value given
Procedure: A549, a human non-small cell lung carcinoma and MDA-MB-435, a human breast carcinoma, used in this study are obtained from the American Type Culture Collection (ATCC, Rockville, Md., USA). MDA-MB-435 cells are maintained in MEM containing 10% FBS, 1% sodium pyruvate, 1% MEM non-essential amino acids, and 15 mM HEPES (pH=7.4). A549 cells are maintained in RPMI 1640 containing 10% FBS. 1A9, a single-cell clone of the human ovarian carcinoma cell line A2780 and PTX22, the paclitaxel-resistant subline, used in this stdy are obtained from M. Wartman (Novartis Pharmauticals). 1A9 cells and PTX22 cells are maintained in RPMI 1640 supplemented with 10% FBS. PTX22 maintenance media also contained 15 ng/mL paclitaxel and 5 μg/mL verapamil. Drug is removed from the media for 5-7 days before use in an experiment. […]
Cell lines are trypsinized and counted using a Coulter counter. […] Initial cell density for each cell line is measured on day 1 by adding 10 μL MTS mixture (see below), incubating for 4 h and recording absorbance at 490 nm (A490). Two or three days after test compound addition, 10 μL/well of MTS mixture is added to the test plates and A490 was read 4 h later. A490 values for wells containing cells are corrected for media absorbance, then normalized to initial density readings to determine percent net growth. Percent net growth is calculated as (A490+drug−A490 initial)/(A490—drug—A490 initial). […]

[3] = MDA-MB-435 cells, 24 hour treatment

| SMILES | IC50 (1A9 cells [1]; first experiment) [ng/mL] | IC50 (1A9 cells [1]; second experiment) [ng/mL] | Raf-1 phosphorylation (Raf-1; 1A9 parental cells) | Raf-1 phosphorylation (Raf-1; A549 cells, 24 hour treatment) | Raf-1 phosphorylation (Raf-1; [3]) | Raf-1 phosphorylation (Raf-1; PTX-22 cells) | IC50 (1A9 cells [2]; read-out: 72 hour IC50, 1A9 cells) [nM] | IC50 (1A9 cells [1]; first experiment, read-out: IC50) [ng/mL] | IC50 (1A9 cells [1]; second experiment, read-out: IC50) [ng/mL] | IC50 (1A9 cells [2]; 1A9 cells, read-out: 72 hour IC50) [nM] |
| --- | --- | --- | --- | --- | --- | --- | --- | --- | --- | --- |
| C=C/C=C\[C@H](C)[C@H](OC(N)=O)[C@@H](C)[C@H](O)[C@@H](C)C/C(C)=C\[C@H](C)[C@@H](O)[C@@H](C)/C=C\[C@@H](O)C[C@@H]1OC(=O)[C@H](C)[C@@H](O)[C@H]1C [discodermolide, (+)-Discodermolide] | 6 (≈ 10.1 nM) | 3 (≈ 5.05 nM) | phosphorylated | phosphorylated | phosphorylated | phosphorylated | 25 | – | – | – |
| CC(=O)O[C@H]1C(=O)[C@@]2(C)[C@H]([C@H](OC(=O)c3ccccc3)[C@]3(O)C[C@H](OC(=O)[C@H](O)[C@@H](NC(=O)c4ccccc4)c4ccccc4)C(C)=C1C3(C)C)[C@]1(OC(C)=O)CO[C@@H]1C[C@@H]2O [paclitaxel, reference compound] | – | – | phosphorylated | phosphorylated | phosphorylated | not observed | – | 0.8 (≈ 0.937 nM) | 0.4 (≈ 0.468 nM) | 6 |
